Results on eight molecules are retold here after patent US8686051B2, “Pharmaceutical composition for treatment of diabetic complications” (VLife Sciences Technologies Pvt. Ltd., priority 2007, dated 2014).

Structures can show the parent of a compound that is named as a salt. Some results are limits rather than exact numbers.

Assay [1] concerns the target T1, purified human recombinant aldose reductase (Homo sapiens, UniProt P15121).
T1 construct: made in house; host or cells: E. coli
Put plainly: Aldose reductase (AR) inhibition, spectrophotometric NADPH oxidation assay. The settings on record: for IC50: read-out: Aldose reductase inhibitory IC50. In kind it is biochemical. An excerpt:
For enzyme inhibition studies, purified human recombinant aldose reductase (expressed in E. coli) was used for testing the aldose reductase (AR) inhibitory activity of beta adrenergic antagonists by a spectrophotometric method, using glyceraldehydes as substrate, (Mol. Vis. 2004, 10, 148-154). Recombinant human aldose reductase was purified from bacterial cultures. Enzyme from expression cultures was extracted and purified essentially as described previously (J Biol Chem 1992; 267: 24833-40) with the exception that affinity chromatography over AffiGel Blue (Bio-Rad) was used as a final purification step. AR activity was assayed according to the method described by Hayman and Kinoshita (J Biol Chem 1965; 240: 877-82). The assay mixture in 1 ml contained 50 μM potassium phosphate buffer pH 6.2, 0.4 mM lithium sulfate, 5 μM 2-mercaptoethanol, 10 μM DL-glyceraldehyde, 0.1 μM NADPH, and enzyme preparation (rat lens or recombinant enzyme). Appropriate blanks were employed for corrections. The assay mixture was incubated at 37° C. and initiated by the addition of NADPH at 37° C. The change in the absorbance at 340 nm due to NADPH oxidation was followed in a Cary Bio 100 spectrophotometer. For inhibition studies concentrated stocks of the Beta adrenergic antagonists, timolol, esmolol, sotalol, nebivolol, carvedilol, metoprolol and labetalol were prepared in water. Various concentrations of Beta adrenergic antagonists, as test compounds, were added to the assay mixture and incubated for 5-10 minutes before initiating the reaction by NADPH as described above. The percent of inhibition with test compounds was calculated considering the AR activity in the absence of inhibitor was 100%. The concentration of each test sample giving 50% inhibition (IC50) was then estimated.

The test system of assay [2] is collagen (hydroxyproline). The assay can be described thus: Measurement of collagen (tissue hydroxyproline by HPLC). Set-up: Collagen production: unit not given here. In kind it is in vivo, rat. The source says:
The synthesis of the 19 known collagens occurs within the cell, as it does for other proteins. The collagen molecule is characterized by the repeating sequence Gly-X-Y, with X often being proline and Y often being hydroxyproline. Hydroxyproline is the end product of collagen breakdown. For this reason, tissue hydroxyproline level is an indirect and objective variable of tissue collagen production. In many experimental studies, hydroxyproline has been used to assess tissue collagen production.
Collagen levels in the tissue were measured by use of high performance liquid chromatography (HPLC) for separating and quantitating the levels of hydroxyproline from the rat tissue. A reverse-phase Nova-Pak C18 column and solvent system (140 mM sodium acetate, 0.05% triethylamine (TEA), 6% acetonitrile) were used, resulting in complete separation of hydroxyproline. Recovery of standards ranged from 89 to 103% and intra-assay variability was <8%. Additionally, [^3H]hydroxyproline measurements were used to examine changes in collagen turnover in the rat labeled with [^3H]proline and “chased” in the presence of 10 mM unlabeled proline.

In assay [3] the test system is wound on dorsal skin of diabetic Wistar rats. The assay can be described thus: Diabetic wound healing in streptozocin-diabetic rats, topical treatment. Format: in vivo. Conditions: for Wound diameter: diabetic rats, topical. On the procedure:
Wistar rats were kept in standard autoclaved rodent cages with ad libitum food (Harland Tekland Irradiated Rodent Diet) and autoclaved water. The rats were housed on Harlan Tek-chip pelleted paper in static micro isolators maintained at 72° F., 60% humidity, and a 12 hour light cycle. The animals were kept at the facility for 10 days to get accustomed to the environment, after the arrival from the vendor. Diabetes was induced in the rats by intraperitoneal injection of 50 mg/kg body weight of streptozocin on 5 consecutive days. The wound was created on the rat by using a contortive scratcher to make a 2 mm incision with 0.57-0.62 mm depth on the dorsal skin of the animal. The area was shaved and sanitized with normal lugol's iodine prior to use of the scratcher.
Esmolol hydrochloride (10%) was administered three times daily or the standard treatment control, by smearing the agent directly onto the wound. The positive control used was platelet derived growth factor that is commercially available. The treatment was continued until the wounds of the treated mice were completely healed. […]
Several wound healing parameters were measured on the day 3, day 7, day 12 and day 19 of the creation of the wound. These parameters are reported in separate tables below. The wound size and weight of the rats was measured every alternate day. Specifically, the length and width of the wound were measured by use of micro vernier calipers, and the tensile strength at the edge of the wound was also recorded every other day. The wound diameter was measured by the same investigator on day 3, 12, 19 by the use of an electronic digital vernier caliper (B&D, Pomanus, N.J.). The caliper was calibrated just before the measurement by adjusting the zero error. […]
The area for evaluation was cut clean by an Eppendorf 10 size scalpel and the tissue was preserved in 10% of phosphate buffered formalin solution. The tissues were removed from this formalin solution and immersed in 100% of ethanol for 6 hours. The tissue were again removed and preserved for evaluation in 10% Bouins solution. […]
The quantity of exudation from wound was measured by the use of a micropipette (Eppendorf). […]
The adherence is the strength by which the two ends of the wound are attached together and measured by a Velcro index meter.
Fluid accumulation was measured by volume of fluid obtained from wound using micro pipette as described in Table 8. […]

The test system of assay [4] is nitric oxide (nitrate/nitrite). The assay can be described thus: Measurement of nitric oxide (nitrite/nitrate) in tissue by chemiluminescence. Format: in vivo, rat. The settings on record: total versus controls. On the procedure:
Fresh tissue (approximately 0.2 g) was added to 1 ml cold homogenizing buffer (20 mmol/l HEPES-KOH, pH 7.9; 25% glycerol; 420 mmol/l NaCl; 1.5 mmol/l MgCl2; 0.2 mmol/l EDTA; 0.5 mmol/l dithiothreitol; 0.2 mmol/l phenylmethylsulphonyl fluoride). The buffered tissues were homogenized at maximum speed for 5 seconds and cooled in ice-water for 30 seconds. This procedure was repeated five times to ensure complete tissue destruction.
Two volumes of 100% cold ethanol were added to the homogenized samples; these were vortexed and incubated on ice for 30 minutes. The homogenate was centrifuged at 12,000×g for 5 minutes at 4° C., and the supernatant transferred to a new tube on ice for NO measurement.
A rapid-response chemiluminescence analyzer was used to measure total gas phase NO (nitrate/nitrite). NO gas reacts with ozone, producing energy in the form of light, and the light is proportional to the quantity of NO present. The emission was measured using a luminometer to determine NO concentration.
The sample tube was securely connected to a Zero Gas Filter (Sievers Instruments) and room air passed through the device for 5 minutes. […] The sample gas was then exposed to the ozone in the reaction vessel to form activated nitrogen dioxide (NO2), which was detected using a red-sensitive photomultiplier tube, and the output recorded using an integrating pen recorder. […]

In assay [5] the test system is formation of sorbitol in red blood cells (RBC). The assay can be described thus: Estimation of sorbitol in red blood cells incubated with 30 mM glucose. In kind it is cell-based. On the procedure: The cells were incubated with 30 mM glucose in vitro. Sorbitol was estimated by the method of reported by Malone, et al. Diabetes; 1980; 29: 861-864.

A word on the IC50: it is the concentration at which inhibition is half-maximal. Take `COc1ccccc1OCCNCC(O)COc1cccc2[nH]c3ccccc3c12` (centres unmarked) [Carvedilol, carvedilol]: in assay [1], the 50% inhibitory concentration (IC50) was above 350 µM.
With `COC(=O)CCc1ccc(OCC(O)CNC(C)C)cc1` (centres unmarked) [Esmolol, esmolol hydrochloride], in assay [1], the “aldose reductase inhibition (in words)” value is reported as “effective aldose reductase inhibition” and the IC50 came to 160 µM. The molecule further came in with a Collagen production in assay [2] (Day 3) of 124. In assay [2] (Day 7), this molecule returned a Collagen production of 287. This molecule registered a Collagen production in assay [2] (Day 12) of 325. This molecule also yielded a Collagen production in assay [2] (Day 19) of 288. The same molecule came in with a Collagen production in assay [2] (Total) of 1024. For the same molecule, the “Collagen production, % Increase” value in assay [2] (total versus controls) is given as 68%. Further, in assay [3] (Day 3), the “Ease of removal from wounds” value was 2.6 +/− 0.2, the “Evaluation of biopsy wounds in diabetic rats” value (“Evaluation of biopsy wounds” for short) is recorded as 1.3 +/− 0.3, the Exudation worked out at 1.2 ± 0.2 µL and the Film transparency is on record as 1.7 +/− 0.3. Further, in assay [3] (Day 3), the Flexibility is 2.3 +/− 0.2, the Fluid accumulation was 2.3 +/− 0.4, the Wound adherence is 2.6 +/− 0.4 and the “Wound diameter: degree of contraction” value is reported as 12.17 +/− 5.8%. In assay [3] (Day 3), the Wound diameter is reported as 1.28 +/− 0.12 MM. For the same molecule, in assay [3] (Day 7), the “Ease of removal from wounds” value is given as 2.8 +/− 0.3, the “Evaluation of biopsy wounds” value is on record as 1.3 +/− 0.2, the Exudation turned out to be 2.7 ± 0.5 µL and the Film transparency is on record as 2.3 +/− 0.4. In assay [3] (Day 7), the Flexibility is 2.4 +/− 0.5, the Fluid accumulation is on record as 2.7 +/− 0.5 and the Wound adherence is given as 3.3 +/− 0.3. For the same molecule, in assay [3] (Day 12), the “Ease of removal from wounds” value is 2.7 +/− 0.5, the “Evaluation of biopsy wounds” value is 1.4 +/− 0.3, the Exudation amounted to 3.5 ± 0.6 µL and the Film transparency was 2.6 +/− 0.6. Moreover, in assay [3] (Day 12), the Flexibility is reported as 3.5 +/− 0.6, the Fluid accumulation is 2.6 +/− 0.7, the Wound adherence is 3.9 +/− 0.5 and the “Wound diameter: degree of contraction” value was 41.86 +/− 13.2%. Further, the Wound diameter in assay [3] (Day 12) is recorded as 1.37 +/− 0.17 MM. Besides, in assay [3] (Day 19), the “Ease of removal from wounds” value was 2.5 +/− 0.4, the “Evaluation of biopsy wounds” value is 1.5 +/− 0.3, the Exudation was 4.9 ± 0.2 µL and the Film transparency is on record as 3.3 +/− 0.4. Moreover, in assay [3] (Day 19), the Flexibility is 3.9 +/− 0.8, the Fluid accumulation was 2.5 +/− 0.5, the Wound adherence was 4.7 +/− 0.5 and the “Wound diameter: degree of contraction” value is on record as 98.64 +/− 9.6%. Further, the Wound diameter in assay [3] (Day 19) is on record as 0.79 +/− 0.28 MM. Further, in assay [3] (Total), the “Ease of removal from wounds” value is 10.6 +/− 1.4, the “Evaluation of biopsy wounds” value is 5.5 +/− 1.1, the Exudation was 12.3 ± 1.1 µL and the Film transparency is given as 9.9 +/− 1.1. For the same molecule, in assay [3] (Total), the Flexibility is on record as 12.1 +/− 2.9, the Fluid accumulation was 10.1 +/− 1.2 and the Wound adherence is 14.5 +/− 0.9. Moreover, in assay [3] (rat, in vivo), the Period for epithelization was 9.8 ± 0.8 days, the Scar formation was 1.3 +/− 0.4 Score and the “Time taken for complete wound closure” value turned out to be 19.6 ± 2.2 days. In addition, in assay [4], the “NO increase, % Increase” value is listed as 53%. The “Sorbitol concentration in RBC” value in assay [5] (RBC under 30 mM glucose + 150 μM of esmolol) was 16.16 µg/mL.
Regarding `CC(CCc1ccccc1)NCC(O)c1ccc(O)c(C(N)=O)c1` (centres unmarked) [Labetalol, labetalol hydrochloride], in assay [1], the half-maximal inhibitory concentration (IC50) was above 350 µM.
Same read-out and setting: as for `COCCc1ccc(OCC(O)CNC(C)C)cc1` (centres unmarked) [Metoprolol, metoprolol tartrate], the figure is above 350 µM; as for `OC(CNCC(O)C1CCc2cc(F)ccc2O1)C1CCc2cc(F)ccc2O1` (centres unmarked) [Nebivolol, nebivolol hydrochloride], above 350 µM.
On to `CC(C)NCC(O)COc1cccc2ccccc12.Cl` (centres unmarked) [Propranolol, propranolol hydrochloride], for which, in assay [1], the “aldose reductase inhibition (in words)” value is listed as “effective aldose reductase inhibition” and the IC50 amounted to 350 µM. The “Sorbitol concentration in RBC” value in assay [5] (RBC under 30 mM glucose + 350 μM of propranolol) was 18.25 µg/mL.
Consider `CC(C)NCC(O)c1ccc(NS(C)(=O)=O)cc1` (centres unmarked) [Sotalol, sotalol hydrochloride], for which, in assay [1], the IC50 is above 350 µM.
Consider `CC(C)(C)NC[C@H](O)COc1nsnc1N1CCOCC1` [Timolol, timolol maleate], for which, in assay [1], the “aldose reductase inhibition (in words)” value was “effective aldose reductase inhibition” and the IC50 is 250 µM. The “Sorbitol concentration in RBC” value in assay [5] (RBC under 30 mM glucose + 250 μM of timolol) was 17.34 µg/mL.
